Values joined by “and” are separate entries in the source; they are usually repeats but may differ in a detail not shown here. Identical values can stand only once. Inconclusive results and toxic doses are left out. How the source made its calls: active means survival T/C of 150% or more; inactive means T/C below 125% in these data.
Test system: CD2F1 mice, L1210 leukemia ip, survival T/C
Test: NCI In Vivo Anticancer Drug Screen. Data for tumor model L1210 Leukemia (intraperitoneal) in CD2F1 (CDF1) mice
Details: higher = longer survival
Outline: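 Implant tumor; dose compound or vehicle; measure endpoint in both groups; report treated divided by control.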

[1] = endpoint: median survival time, dose: 50.0 mg/kg/injection, schedule: Q01DX005 (ip), vehicle: saline
[2] = endpoint: median survival time, dose: 100.0 mg/kg/injection, schedule: Q01DX005 (ip), vehicle: saline
[3] = endpoint: median survival time, dose: 200.0 mg/kg/injection, schedule: Q01DX005 (ip), vehicle: saline
[4] = endpoint: mean survival time, dose: 100.0 mg/kg/injection, schedule: Q04DX003 (ip), vehicle: Klucel (hydroxypropylcellulose) (HPC)
[5] = endpoint: mean survival time, dose: 200.0 mg/kg/injection, schedule: Q04DX003 (ip), vehicle: Klucel (hydroxypropylcellulose) (HPC)
[6] = endpoint: mean survival time, dose: 100.0 mg/kg/injection, schedule: Q01DX001 (ip), vehicle: saline with Tween-80
[7] = endpoint: mean survival time, dose: 200.0 mg/kg/injection, schedule: Q01DX001 (ip), vehicle: saline with Tween-80
[8] = endpoint: mean survival time, dose: 400.0 mg/kg/injection, schedule: Q01DX001 (ip), vehicle: saline with Tween-80
[9] = endpoint: mean survival time, dose: 100.0 mg/kg/injection, schedule: Q01DX009 (ip), vehicle: saline with Tween-80
[10] = endpoint: mean survival time, dose: 200.0 mg/kg/injection, schedule: Q01DX009 (ip), vehicle: saline with Tween-80
[11] = endpoint: mean survival time, dose: 50.0 mg/kg/injection, schedule: Q01DX009 (ip), vehicle: saline with Tween-80

Measured: T/C

CC#CCOCC(O)CCl (stereo not given)
inactive: [1] 97 % of control | endpoint: median survival time, dose: 50.0 mg/kg/injection, schedule: Q01DX005 (ip), vehicle: suspension in saline 104 % of control | [2] 94 % of control | endpoint: median survival time, dose: 100.0 mg/kg/injection, schedule: Q01DX005 (ip), vehicle: suspension in saline 101 % of control | [3] 97 % of control | endpoint: median survival time, dose: 200.0 mg/kg/injection, schedule: Q01DX005 (ip), vehicle: suspension in saline 96 % of control | endpoint: median survival time, dose: 400.0 mg/kg/injection, schedule: Q01DX005 (ip), vehicle: saline 117 % of control

CCCCCC(C)N (stereo not given)
inactive: endpoint: mean survival time, dose: 12.5 mg/kg/injection, schedule: Q01DX009 (ip), vehicle: saline sonified 101 % of control | endpoint: mean survival time, dose: 12.5 mg/kg/injection, schedule: Q04DX003 (ip), vehicle: saline 104 % of control | endpoint: mean survival time, dose: 25.0 mg/kg/injection, schedule: Q01DX009 (ip), vehicle: saline sonified 98 % of control | endpoint: mean survival time, dose: 25.0 mg/kg/injection, schedule: Q04DX003 (ip), vehicle: saline 103 % of control | endpoint: mean survival time, dose: 50.0 mg/kg/injection, schedule: Q01DX009 (ip), vehicle: saline sonified 107 % of control | endpoint: mean survival time, dose: 50.0 mg/kg/injection, schedule: Q04DX003 (ip), vehicle: saline 97 % of control

CC12CCC(=O)C=C1CCC1C2C(=O)CC2(C)C1CCC2(O)C(=O)Cn1c(=O)[nH]cc(F)c1=O (stereo not given)
inactive: endpoint: mean survival time, dose: 12.5 mg/kg/injection, schedule: Q04DX003 (ip), vehicle: Klucel (hydroxypropylcellulose) (HPC) 103 % of control | endpoint: mean survival time, dose: 25.0 mg/kg/injection, schedule: Q04DX003 (ip), vehicle: Klucel (hydroxypropylcellulose) (HPC) 97 % of control | endpoint: mean survival time, dose: 50.0 mg/kg/injection, schedule: Q04DX003 (ip), vehicle: Klucel (hydroxypropylcellulose) (HPC) 100 % of control | [4] 97 % of control | [5] 97 % of control

COc1cccc(/C=N/C(=S)NC2(C)C3CCC(C3)C2(C)C)c1O (stereo not given)
inactive: endpoint: mean survival time, dose: 12.5 mg/kg/injection, schedule: Q01DX009 (ip), vehicle: olive oil, sesame oil, peanut oil 98 % of control | endpoint: mean survival time, dose: 25.0 mg/kg/injection, schedule: Q01DX009 (ip), vehicle: olive oil, sesame oil, peanut oil 96 % of control | endpoint: mean survival time, dose: 50.0 mg/kg/injection, schedule: Q01DX009 (ip), vehicle: olive oil, sesame oil, peanut oil 90 % of control | endpoint: mean survival time, dose: 100.0 mg/kg/injection, schedule: Q01DX009 (ip), vehicle: olive oil, sesame oil, peanut oil 97 % of control | endpoint: mean survival time, dose: 200.0 mg/kg/injection, schedule: Q01DX009 (ip), vehicle: olive oil, sesame oil, peanut oil 96 % of control | endpoint: mean survival time, dose: 400.0 mg/kg/injection, schedule: Q01DX009 (ip), vehicle: olive oil, sesame oil, peanut oil 90 % of control

CCCCCCCCCCCCCCCCCCCOc1ccc(OCCCCCCCCCCCCCCCC)cc1
inactive: [6] 100 % of control | [7] 96 % of control | [8] 88 % of control

Nc1cccc2cnccc12
inactive: [9] 100 % of control | endpoint: mean survival time, dose: 100.0 mg/kg/injection, schedule: Q04DX003 (ip), vehicle: saline with Tween-80 91 % of control | [10] 98 % of control | endpoint: mean survival time, dose: 200.0 mg/kg/injection, schedule: Q04DX003 (ip), vehicle: saline with Tween-80 93 % of control | endpoint: mean survival time, dose: 400.0 mg/kg/injection, schedule: Q04DX003 (ip), vehicle: saline with Tween-80 96 % of control

CC1=C(O)C(=O)[C@@H]2O[C@@H]2C1=O
inactive: endpoint: mean survival time, dose: 0.78 mg/kg/injection, schedule: Q01DX009 (ip), vehicle: saline 98 % of control and 102 % of control | endpoint: mean survival time, dose: 1.56 mg/kg/injection, schedule: Q01DX009 (ip), vehicle: saline 101 % of control and 102 % of control | endpoint: mean survival time, dose: 3.12 mg/kg/injection, schedule: Q01DX009 (ip), vehicle: saline 96 % of control and 107 % of control | endpoint: mean survival time, dose: 6.25 mg/kg/injection, schedule: Q01DX009 (ip), vehicle: saline 98 % of control and 108 % of control | endpoint: mean survival time, dose: 12.5 mg/kg/injection, schedule: Q01DX009 (ip), vehicle: saline 108 % of control | endpoint: mean survival time, dose: 25.0 mg/kg/injection, schedule: Q01DX009 (ip), vehicle: saline 87 % of control

Nc1nc(-c2cccc([N+](=O)[O-])c2)c(N=Nc2cccc([N+](=O)[O-])c2)s1
inactive: [6] 89 % of control | [8] 90 % of control

CCOC(CC)c1ccccc1 (stereo not given)
inactive: [11] 103 % of control | [9] 103 % of control | [10] 106 % of control

O=c1cccc[nH]1 (tested in a mixture with another compound)
inactive: [11] 108 % of control | endpoint: mean survival time, dose: 100.0 mg/kg/injection, schedule: Q04DX003 (ip), vehicle: saline 97 % of control | endpoint: mean survival time, dose: 200.0 mg/kg/injection, schedule: Q04DX003 (ip), vehicle: saline 97 % of control

O=[N+]([O-])c1cc(-c2nnc(-c3ccc(Cl)c([N+](=O)[O-])c3)o2)ccc1Cl
inactive: endpoint: mean survival time, dose: 50.0 mg/kg/injection, schedule: Q04DX002 (ip), vehicle: saline with Tween-80 100 % of control | endpoint: mean survival time, dose: 100.0 mg/kg/injection, schedule: Q04DX002 (ip), vehicle: saline with Tween-80 100 % of control | endpoint: mean survival time, dose: 200.0 mg/kg/injection, schedule: Q04DX002 (ip), vehicle: saline with Tween-80 96 % of control | endpoint: mean survival time, dose: 400.0 mg/kg/injection, schedule: Q04DX002 (ip), vehicle: saline with Tween-80 100 % of control

CN(C)C(=S)SCc1ccc(Cl)cc1
inactive: endpoint: mean survival time, dose: 100.0 mg/kg/injection, schedule: Q04DX003 (ip), vehicle: other 93 % of control | endpoint: mean survival time, dose: 200.0 mg/kg/injection, schedule: Q04DX003 (ip), vehicle: other 102 % of control | endpoint: mean survival time, dose: 400.0 mg/kg/injection, schedule: Q04DX003 (ip), vehicle: other 100 % of control

C/C=C1\C[C@@H]2C(OC)Nc3cc(O)c(OC)cc3C(=O)N2C1 (stereo not given in full)
inactive: endpoint: mean survival time, dose: 0.03 mg/kg/injection, schedule: Q01DX009 (ip), vehicle: saline 103 % of control | endpoint: mean survival time, dose: 0.03 mg/kg/injection, schedule: Q01DX009 (ip), vehicle: suspension in saline 102 % of control | endpoint: mean survival time, dose: 0.06 mg/kg/injection, schedule: Q01DX009 (ip), vehicle: saline 104 % of control | endpoint: mean survival time, dose: 0.06 mg/kg/injection, schedule: Q01DX009 (ip), vehicle: suspension in saline 101 % of control | endpoint: mean survival time, dose: 0.12 mg/kg/injection, schedule: Q01DX009 (ip), vehicle: saline 109 % of control | endpoint: mean survival time, dose: 0.12 mg/kg/injection, schedule: Q01DX009 (ip), vehicle: suspension in saline 108 % of control | endpoint: mean survival time, dose: 0.25 mg/kg/injection, schedule: Q01DX009 (ip), vehicle: saline 106 % of control | endpoint: mean survival time, dose: 0.25 mg/kg/injection, schedule: Q01DX009 (ip), vehicle: suspension in saline 120 % of control | endpoint: mean survival time, dose: 0.5 mg/kg/injection, schedule: Q01DX009 (ip), vehicle: saline 118 % of control | endpoint: mean survival time, dose: 0.5 mg/kg/injection, schedule: Q01DX009 (ip), vehicle: suspension in saline 123 % of control | endpoint: mean survival time, dose: 0.75 mg/kg/injection, schedule: Q04DX002 (ip), vehicle: saline 106 % of control | endpoint: mean survival time, dose: 1.0 mg/kg/injection, schedule: Q01DX009 (ip), vehicle: saline 110 % of control | endpoint: mean survival time, dose: 1.0 mg/kg/injection, schedule: Q01DX009 (ip), vehicle: suspension in saline 92 % of control | endpoint: mean survival time, dose: 1.5 mg/kg/injection, schedule: Q04DX002 (ip), vehicle: saline 114 % of control

COc1nc(NC2OC(CO)C(O)C(O)C2O)c(C(C)=O)c(=O)[nH]1 (stereo not given)
inactive: endpoint: median survival time, dose: 12.5 mg/kg/injection, schedule: Q01DX005 (ip), vehicle: saline 97 % of control | endpoint: median survival time, dose: 25.0 mg/kg/injection, schedule: Q01DX005 (ip), vehicle: saline 98 % of control | [1] 98 % of control | [2] 97 % of control | [3] 98 % of control

CN(CCCN(C)N=Nc1ccccc1C(=O)O)N=Nc1ccccc1C(=O)O
inactive: [4] 102 % of control | [5] 100 % of control | endpoint: mean survival time, dose: 400.0 mg/kg/injection, schedule: Q04DX003 (ip), vehicle: Klucel (hydroxypropylcellulose) (HPC) 98 % of control

O=c1[nH]ccc(=S)[nH]1
inactive: [6] 97 % of control | [7] 88 % of control

CCN1CC2CCC(C(=O)O)(C2)C1=O (stereo not given)
inactive: endpoint: mean survival time, dose: 100.0 mg/kg/injection, schedule: Q01DX001 (ip), vehicle: saline 98 % of control | endpoint: mean survival time, dose: 200.0 mg/kg/injection, schedule: Q01DX001 (ip), vehicle: saline 106 % of control | endpoint: mean survival time, dose: 400.0 mg/kg/injection, schedule: Q01DX001 (ip), vehicle: saline 102 % of control
